The subject of data set [1] is Pseudomonas aeruginosa. The data set can be described thus: Antibacterial activity against Pseudomonas aeruginosa PAO1 by standard optical density assay. Format: functional, organism-based.
For data set [2], the system named is Pseudomonas aeruginosa. The data set can be described thus: Antibiofilm activity against Pseudomonas aeruginosa PAO1 at 10 uM after 18 hrs by crystal violet staining-based assay. Format: functional, organism-based.
The target of data set [3] is 3-(3-hydroxydecanoyloxy)decanoate synthase (Pseudomonas aeruginosa (strain ATCC 15692 / PAO1 / 1C / PRS 101 / LMG12228)) (UniProt Q51559). The data set can be described thus: Inhibition of rhlA in Pseudomonas aeruginosa PAO1 assessed as decrease in rhamnolipid production at 10 uM after 16 hrs by standard optical density assay.
Data set [4] deals with Pseudomonas aeruginosa PAO1. The data set can be described thus: Inhibition of PQS in Pseudomonas aeruginosa PAO1 assessed as decrease in pyocyanin production at 10 uM after 16 hrs by standard optical density assay.
For data set [5], the target named is 3-(3-hydroxydecanoyloxy)decanoate synthase (Pseudomonas aeruginosa (strain ATCC 15692 / PAO1 / 1C / PRS 101 / LMG12228)) (UniProt Q51559). In words: Inhibition of rhlA in Pseudomonas aeruginosa PAO1 containing […] translational reporter fusion at 20 uM after 16 hrs by LacZ reporter gene assay.
Data set [6] concerns Pseudomonas aeruginosa PAO1. The data set can be described thus: Inhibition of quorum sensing protein iqs in Pseudomonas aeruginosa PAO1 in phosphate limited medium assessed as reduction in biofilm formation at 10 uM after 18 hrs by crystal violet staining-based assay.
For data set [7], the target named is Elastase (Pseudomonas aeruginosa (strain ATCC 15692 / PAO1 / 1C / PRS 101 / LMG12228)) (UniProt P14756). The data set can be described thus: Inhibition of lasB in Pseudomonas aeruginosa PAO1 containing lasB-lacZ translational reporter fusion at 20 uM after 16 hrs by LacZ reporter gene assay. In general terms: In a reporter assay the amount or activity of a reporter protein is the signal.

Data set [8] concerns the target T1, Anthranilate--CoA ligase (Pseudomonas aeruginosa (strain ATCC 15692 / DSM 22644 / CIP 104116 /JCM 14847 / LMG 12228 / 1C / PRS 101 / PAO1)) (UniProt Q9I4X3).
T1 sequence (whole entry): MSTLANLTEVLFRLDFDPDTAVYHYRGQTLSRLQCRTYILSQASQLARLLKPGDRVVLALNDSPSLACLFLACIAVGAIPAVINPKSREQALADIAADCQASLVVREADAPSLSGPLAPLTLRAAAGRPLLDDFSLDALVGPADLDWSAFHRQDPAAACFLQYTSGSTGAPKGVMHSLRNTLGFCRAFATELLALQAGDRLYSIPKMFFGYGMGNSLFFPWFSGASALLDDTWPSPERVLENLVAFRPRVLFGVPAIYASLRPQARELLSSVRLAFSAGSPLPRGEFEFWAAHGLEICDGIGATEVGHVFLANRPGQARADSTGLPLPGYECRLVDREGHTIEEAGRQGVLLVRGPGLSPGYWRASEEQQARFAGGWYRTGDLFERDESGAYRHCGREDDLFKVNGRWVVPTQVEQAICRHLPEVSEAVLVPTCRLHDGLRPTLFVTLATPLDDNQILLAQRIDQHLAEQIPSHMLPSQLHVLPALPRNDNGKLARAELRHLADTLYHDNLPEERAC
The data set can be described thus: Inhibition of pqsA in Pseudomonas aeruginosa PAO1 containing […] translational reporter fusion at 20 uM after 16 hrs by LacZ reporter gene assay.

Activity calls are given as the source filed them. The rule behind the calls is not given here.

Chain of Elastase (Pseudomonas aeruginosa (strain ATCC 15692 / PAO1 / 1C / PRS 101 / LMG12228)) (P14756 198-498 limits assumed): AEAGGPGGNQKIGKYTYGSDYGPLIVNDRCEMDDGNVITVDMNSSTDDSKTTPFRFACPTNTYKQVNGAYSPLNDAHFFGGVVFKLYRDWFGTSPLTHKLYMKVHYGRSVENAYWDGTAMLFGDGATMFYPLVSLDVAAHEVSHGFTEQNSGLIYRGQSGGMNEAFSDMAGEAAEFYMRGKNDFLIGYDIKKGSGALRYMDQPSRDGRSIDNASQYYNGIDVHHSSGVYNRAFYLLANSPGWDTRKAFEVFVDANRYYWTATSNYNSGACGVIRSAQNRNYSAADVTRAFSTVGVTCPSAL

In the case of `CCCCCCC(=O)Oc1cccc2ccc(-c3ccc(F)cc3)nc12`, the MIC with Pseudomonas aeruginosa [1] is above 256 µM.
As for `O=C(Oc1cccc2ccc(-c3cccc(C(F)(F)F)c3)nc12)c1ccc(Cl)cc1`, the MIC in the data set on Pseudomonas aeruginosa [1] was above 256 µM. Also, in the data set on Pseudomonas aeruginosa [2], the outcome was Active.
For `CC(=O)Oc1cccc2ccc(-c3ccc(C(F)(F)F)cc3)nc12` the same measures were above 256 µM and “Active”.
For `O=C(Oc1cccc2ccc(-c3ccc(C(F)(F)F)cc3)nc12)c1ccc(Cl)cc1` the same measures were above 256 µM and “Active”.
For `Cc1ccc(C(=O)Oc2cccc3ccc(-c4ccc(C(F)(F)F)cc4)nc23)cc1` the same measures were above 256 µM and “Active”.
Consider `CCCC(=O)Oc1cccc2ccc(-c3ccc(C(F)(F)F)cc3)nc12`, for which the MIC against Pseudomonas aeruginosa [1] was above 256 µM. For the same compound, the outcome in the data set with Pseudomonas aeruginosa [2] was Active.
The like results for `COc1ccc(C(=O)Oc2cccc3ccc(-c4ccc(C(F)(F)F)cc4)nc23)cc1` were, in that order, above 256 µM and “Active”.
For `O=C(Oc1cccc2ccc(-c3cccc(C(F)(F)F)c3)nc12)c1ccco1`, the MIC in the data set on Pseudomonas aeruginosa [1] was above 256 µM. Moreover, the result with Pseudomonas aeruginosa [2] was Active.
In turn, `O=C(Oc1cccc2ccc(-c3cccc(C(F)(F)F)c3)nc12)c1ccccc1` returned an MIC in the data set with Pseudomonas aeruginosa [1] above 256 µM. Besides, the result in the data set on Pseudomonas aeruginosa [2] was Active.
For `O=C(Oc1cccc2ccc(-c3ccc(C(F)(F)F)cc3)nc12)c1ccccc1` the same measures were above 256 µM and “Active”.
In the data set on Pseudomonas aeruginosa [1], `Cc1ccc(C(=O)Oc2cccc3ccc(-c4cccc(C(F)(F)F)c4)nc23)cc1` displayed an MIC above 256 µM. Moreover, the result in the data set on Pseudomonas aeruginosa [2] was Active.
Take `CCC(=O)Oc1cccc2ccc(-c3ccc(C(F)(F)F)cc3)nc12`: the MIC against Pseudomonas aeruginosa [1] is above 256 µM. The result in the data set on Pseudomonas aeruginosa [2] was Active.
In the data set with Pseudomonas aeruginosa [1], `COc1ccc(C(=O)Oc2cccc3ccc(-c4cccc(C(F)(F)F)c4)nc23)cc1` yielded an MIC above 256 µM. The inhibition result in data set [3] and in data set [5] was “Active” in each case. Moreover, the inhibition result in data set [4], in data set [6], in data set [7] and in data set [8] was “inactive” throughout. The result with Pseudomonas aeruginosa [2] was Active.
Compound `CCCCCC(=O)Oc1cccc2ccc(-c3ccc(C(F)(F)F)cc3)nc12` returned an MIC in the data set with Pseudomonas aeruginosa [1] above 256 µM. Further, the outcome with Pseudomonas aeruginosa [2] was Active.
Turning to `O=C(Oc1cccc2ccc(-c3ccc(C(F)(F)F)cc3)nc12)c1ccco1`, the MIC with Pseudomonas aeruginosa [1] was above 256 µM. Further, the result in the data set on Pseudomonas aeruginosa [2] was Active.
The compound `CCCCCCC(=O)Oc1cccc2ccc(-c3ccc(C(F)(F)F)cc3)nc12` displayed an MIC against Pseudomonas aeruginosa [1] above 256 µM. In addition, the inhibition entry in data set [3] and in data set [5] was “Active” in each case. Further, the inhibition entry in data set [4], in data set [6], in data set [7] and in data set [8] was “inactive” each time. Moreover, the result in the data set on Pseudomonas aeruginosa [2] was Active.
With `CCCCC(=O)Oc1cccc2ccc(-c3ccc(C(F)(F)F)cc3)nc12`, the MIC against Pseudomonas aeruginosa [1] is above 256 µM. The result in the data set with Pseudomonas aeruginosa [2] was Active.
The like results for `CCCCCC(=O)Oc1cccc2ccc(-c3cccc(C(F)(F)F)c3)nc12` were, in that order, above 256 µM and “Active”.
For `CCCCCCC(=O)Oc1cccc2ccc(-c3cccc(C(F)(F)F)c3)nc12` the same measures were above 256 µM and “Active”.
The like results for `Oc1cccc2ccc(-c3ccc(C(F)(F)F)cc3)nc12` were, in that order, above 256 µM and “Active”.
`CCCCCCC(=O)Oc1cccc2ccc(-c3cc(C(F)(F)F)cc(C(F)(F)F)c3)nc12` had an MIC in the data set on Pseudomonas aeruginosa [1] above 256 µM.

Values taken from ChEMBL document CHEMBL4422639, “Novel 2, 8-bit derivatives of quinolines attenuate Pseudomonas aeruginosa virulence and biofilm formation” (Bioorg Med Chem Lett, 2019).
